Laboratory results reported in patent US8247211B2, “Glycopeptide antibiotics” (American Cyanamid Company, priority 2001, dated 2012).
In brackets after ≈: the same amount, converted by molar mass.

Legend:
Assay in all cases: In vitro antibacterial evaluation: minimum inhibitory concentration (MIC), broth dilution method
Type in all cases: cell-based
[1] = test system: Enterococcus sp.
Method in brief: (§1)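 MIC read as lowest drug level preventing visible growth. Organisms at 5×10^5 CFU/mL were exposed to a 64-0.06 μg/mL dilution series in Muller-Hinton II […] following NCCLS broth dilution standard M7-A2.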

[2] = test system: Staphylococcus sp.
Method in brief: as §1

[3] = test system: Streptococcus sp.
Method in brief: as §1

[4] = test system: Escherichia coli
Method in brief: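 Following NCCLS approved standard M7-A2, compounds are serially diluted from 64 to 0.06 μg/mL in Muller-Hinton II […] and inoculated at 5×10^5 CFU/mL; the MIC is the minimum concentration at which growth is inhibited.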

[5] = broth dilution, inoculum 5×10^5 CFU/mL, 18 hours at 35° C.
[6] = broth dilution, 5×10^5 CFU/mL, 18 hours at 35° C.

For `CC(c1ccccc1)C1NC(=O)CNC(=O)C(CO)NC(=O)C(C(O)C2CNC(=N)N2C2OC(CO)C(O)C(O)C2O)NC(=O)C(C(O)C2CNC(=N)N2)NC(=O)C(Cc2ccc(OC3OC(CO)C(OC4OC5COC6(CCCCCCCCCCC6)OC5C(O)C4O)C(O)C3O)cc2)NC1=O` (stereo not drawn) [Example 209, Cyclo[glycyl-β-methylphenylalanyl-O-[4-O-(4,6-O-cyclododecylidenehexopyranosyl)-hexopyranosyl]tyrosyl-3-(2-iminoimidazolidin-4-yl)seryl-3-(3-hexopyranosyl-2-iminoimidazolidin-4-yl)serylseryl]], the “MIC Enterococcus avium (GC 4558)” value ([1]; Enterococcus avium (GC 4558), 18 hours at 35° C.) was 4 µg/mL (≈ 2.74 µM), the “MIC Enterococcus faecalis (ATCC 29212)” value ([1]; Enterococcus faecalis (ATCC 29212), 18 hours at 35° C.) was 4 µg/mL (≈ 2.74 µM) and the “MIC Enterococcus faecalis (GC 2242)” value ([1]; Enterococcus faecalis (GC 2242), 18 hours at 35° C.) was 4 µg/mL (≈ 2.74 µM). The “MIC Enterococcus faecalis (GC 6189)” value ([1]; Enterococcus faecalis (GC 6189), 18 hours at 35° C.) was 1 µg/mL (≈ 0.685 µM), the “MIC Enterococcus faecium (GC 2243)” value ([1]; Enterococcus faecium (GC 2243), 18 hours at 35° C.) was 1 µg/mL (≈ 0.685 µM) and the “MIC Enterococcus faecium (GC 4556)” value ([1]; Enterococcus faecium (GC 4556), 18 hours at 35° C.) was 4 µg/mL (≈ 2.74 µM). The “MIC Enterococcus avium (GC 4558)” value [1, 5] was 4 µg/mL (≈ 2.74 µM), the “MIC Enterococcus faecalis (ATCC 29212)” value [1, 5] was 4 µg/mL (≈ 2.74 µM) and the “MIC Enterococcus faecalis (GC 2242)” value [1, 5] was 4 µg/mL (≈ 2.74 µM). The “MIC Enterococcus faecalis (GC 6189)” value [1, 5] was 1 µg/mL (≈ 0.685 µM), the “MIC Enterococcus faecium (GC 2243)” value [1, 5] was 1 µg/mL (≈ 0.685 µM) and the “MIC Enterococcus faecium (GC 4556)” value [1, 5] was 4 µg/mL (≈ 2.74 µM). For the same compound, the “MIC Staphylococcus aureus (ATCC 29213)” value ([2]; strain ATCC 29213) was 4 µg/mL (≈ 2.74 µM), the “MIC Staphylococcus aureus (GC 1131)” value ([2]; strain GC 1131) was 2 µg/mL (≈ 1.37 µM) and the “MIC Staphylococcus aureus (GC 4541)” value ([2]; strain GC 4541) was 2 µg/mL (≈ 1.37 µM). For the same compound, the “MIC Staphylococcus aureus-SMITH (GC 4543)” value ([2]; strain GC 4543) was 1 µg/mL (≈ 0.685 µM), the “MIC Coagulase Negative Staphylococcus (GC 4547)” value ([2]; strain GC 4547) was 4 µg/mL (≈ 2.74 µM) and the “MIC Coagulase Negative Staphylococcus (GC 4548)” value ([2]; strain GC 4548) was 1 µg/mL (≈ 0.685 µM). For the same compound, the “MIC Coagulase Negative Staphylococcus (GC 4549)” value ([2]; strain GC 4549) was 1 µg/mL (≈ 0.685 µM), the “MIC Coagulase Negative Staphylococcus (GC 6257)” value ([2]; strain GC 6257) was 2 µg/mL (≈ 1.37 µM) and the “MIC Streptococcus pneumoniae (ATCC 6301)” value ([3]; Streptococcus pneumoniae (ATCC 6301), 18 hours at 35° C.) was <0.06 µg/mL. The “MIC Streptococcus pneumoniae (GC 1894)” value ([3]; Streptococcus pneumoniae (GC 1894), 18 hours at 35° C.) was <0.06 µg/mL, the “MIC Streptococcus pneumoniae (ATCC 6301)” value [3, 5] was <0.06 µg/mL and the “MIC Streptococcus pneumoniae (GC 1894)” value [3, 5] was <0.06 µg/mL. The “MIC Escherichia coli (ATCC 25922)” value ([4]; Escherichia coli (ATCC 25922), 18 hours at 35° C.) was 64 µg/mL (≈ 43.8 µM), the “MIC Escherichia coli (GC 4559)” value ([4]; Escherichia coli (GC 4559), 18 hours at 35° C.) was >64 µg/mL and the “MIC Escherichia coli (GC 4560)” value ([4]; Escherichia coli (GC 4560), 18 hours at 35° C.) was 4 µg/mL (≈ 2.74 µM).

With `CC(c1ccccc1)C1NC(=O)CNC(=O)C(CO)NC(=O)C(C(O)C2CNC(=N)N2C2OC(CO)C(O)C(O)C2O)NC(=O)C(C(O)C2CNC(=NC(=O)C(C)(C)C)N2)NC(=O)C(Cc2ccc(OC3OC(CO)C(OC4OC(CO)C(O)C(O)C4O)C(O)C3O)cc2)NC1=O` (stereo not drawn) [Example 155, Cyclo[glycyl-β-methylphenylalanyl-O-(4-O-hexopyranosylhexopyranosyl)tyrosyl-3-[2-[(2,2-dimethylpropanoyl)imino]imidazolidin-4-yl]seryl-3-(3-hexopyranosyl-2-iminoimidazolidin-4-yl)serylseryl]] the “MIC Enterococcus avium (GC 4558)” value ([1]; Enterococcus avium (GC 4558), broth dilution, 18 hours at 35° C.) was 0.5 to 1 µg/mL, the “MIC Enterococcus faecalis (ATCC 29212)” value ([1]; Enterococcus faecalis (ATCC 29212), broth dilution, 18 hours at 35° C.) was 0.5 to 1 µg/mL and the “MIC Enterococcus faecalis (GC 4554)” value ([1]; Enterococcus faecalis (GC 4554), broth dilution, 18 hours at 35° C.) was 0.5 to 1 µg/mL. The “MIC Enterococcus faecalis (GC 6189)” value ([1]; Enterococcus faecalis (GC 6189), broth dilution, 18 hours at 35° C.) was 0.5 µg/mL (≈ 0.362 µM), the “MIC Enterococcus faecium (GC 2243)” value ([1]; Enterococcus faecium (GC 2243), broth dilution, 18 hours at 35° C.) was <0.5 to 1 µg/mL and the “MIC Enterococcus faecium (GC 4556)” value ([1]; Enterococcus faecium (GC 4556), broth dilution, 18 hours at 35° C.) was 1 to 2 µg/mL. The “MIC Enterococcus faecium (GC 4557)” value ([1]; Enterococcus faecium (GC 4557), broth dilution, 18 hours at 35° C.) was 1 to 2 µg/mL, the “MIC Enterococcus faecalis (ATCC 29212)” value ([1]; strain ATCC 29212) was 0.5 to 1 µg/mL and the “MIC Enterococcus faecalis (GC 2242)” value ([1]; strain GC 2242) was 0.5 to 1 µg/mL. The “MIC Enterococcus faecium (GC 2243)” value ([1]; strain GC 2243) was <0.5 to 1 µg/mL, the “MIC Enterococcus faecalis (GC 2691)” value ([1]; strain GC 2691) was 0.5 µg/mL (≈ 0.362 µM) and the “MIC Enterococcus faecalis (GC 3059)” value ([1]; strain GC 3059) was 0.5 µg/mL (≈ 0.362 µM). The “MIC Enterococcus faecalis (GC 4554)” value ([1]; strain GC 4554) was 0.5 to 1 µg/mL, the “MIC Enterococcus faecium (GC 4556)” value ([1]; strain GC 4556) was 1 to 2 µg/mL and the “MIC Enterococcus faecium (GC 4557)” value ([1]; strain GC 4557) was 1 to 2 µg/mL. The “MIC Enterococcus avium (GC 4558)” value ([1]; strain GC 4558) was 0.5 to 1 µg/mL, the “MIC Enterococcus faecalis (GC 6189)” value ([1]; strain GC 6189) was 0.5 µg/mL (≈ 0.362 µM) and the “MIC Coagulase Negative Staphylococcus (GC 4547)” value [2, 6] was <0.5 to 2 µg/mL. For the same compound, the “MIC Coagulase Negative Staphylococcus (GC 4548)” value [2, 6] was <0.5 to 1 µg/mL, the “MIC Coagulase Negative Staphylococcus (GC 4549)” value [2, 6] was <0.5 to 1 µg/mL and the “MIC Coagulase Negative Staphylococcus (GC 4551)” value [2, 6] was <0.5 to 1 µg/mL. The “MIC Coagulase Negative Staphylococcus (GC 6257)” value [2, 6] was 1 µg/mL (≈ 0.725 µM), the “MIC Coagulase Negative Staphylococcus (ID-3941)” value [2, 6] was <0.5 µg/mL and the “MIC Staphylococcus aureus (GC 3051)” value [2, 6] was 0.5 µg/mL (≈ 0.362 µM). For the same compound, the “MIC Staphylococcus aureus (GC 3053)” value [2, 6] was 0.5 µg/mL (≈ 0.362 µM), the “MIC Staphylococcus aureus (GC 4545)” value [2, 6] was 0.5 to 1 µg/mL and the “MIC Staphylococcus haemolyticus (GC 4546)” value [2, 6] was <0.5 to 1 µg/mL. For the same compound, the “MIC Staphylococcus aureus (GC 3051)” value ([2]; strain GC 3051, broth dilution, 18 hours at 35° C.) was 0.5 µg/mL (≈ 0.362 µM), the “MIC Staphylococcus aureus (GC 3053)” value ([2]; strain GC 3053, broth dilution, 18 hours at 35° C.) was 0.5 µg/mL (≈ 0.362 µM) and the “MIC Staphylococcus aureus (GC 4545)” value ([2]; strain GC 4545, broth dilution, 18 hours at 35° C.) was 0.5 to 1 µg/mL. For the same compound, the “MIC Staphylococcus haemolyticus (GC 4546)” value ([2]; strain GC 4546, broth dilution, 18 hours at 35° C.) was <0.5 to 1 µg/mL, the “MIC Coagulase Negative Staphylococcus (GC 4547)” value ([2]; strain GC 4547, broth dilution, 18 hours at 35° C.) was <0.5 to 2 µg/mL and the “MIC Coagulase Negative Staphylococcus (GC 4548)” value ([2]; strain GC 4548, broth dilution, 18 hours at 35° C.) was <0.5 to 1 µg/mL. For the same compound, the “MIC Coagulase Negative Staphylococcus (GC 4549)” value ([2]; strain GC 4549, broth dilution, 18 hours at 35° C.) was <0.5 to 1 µg/mL, the “MIC Coagulase Negative Staphylococcus (GC 4551)” value ([2]; strain GC 4551, broth dilution, 18 hours at 35° C.) was <0.5 to 1 µg/mL and the “MIC Coagulase Negative Staphylococcus (GC 6257)” value ([2]; strain GC 6257, broth dilution, 18 hours at 35° C.) was 1 µg/mL (≈ 0.725 µM). The “MIC Coagulase Negative Staphylococcus (ID-3941)” value ([2]; strain ID-3941, broth dilution, 18 hours at 35° C.) was <0.5 µg/mL, the “MIC Streptococcus pneumoniae (ATCC 6301)” value ([3]; strain ATCC 6301) was 0.12 µg/mL (≈ 0.087 µM) and the “MIC Streptococcus pneumoniae (GC 1894)” value ([3]; strain GC 1894) was 0.12 µg/mL (≈ 0.087 µM). For the same compound, the “MIC Streptococcus pyogenes (GC 4563)” value ([3]; strain GC 4563) was >0.12 µg/mL, the “MIC Streptococcus agalactiae (GC 4564)” value ([3]; strain GC 4564) was <0.12 µg/mL and the “MIC Streptococcus pyogenes (ID-3187)” value ([3]; strain ID-3187) was <0.5 µg/mL. The “MIC Escherichia coli (ATCC 25922)” value ([4]; strain ATCC 25922) was >64 µg/mL, the “MIC Escherichia coli (GC 4559)” value ([4]; strain GC 4559) was >64 µg/mL and the “MIC Escherichi coli (GC 4560)” value ([4]; strain GC 4560) was 0.5 to 2 µg/mL.
